“Also recorded” adds a separate entry of the source.
What was measured:
Type in all cases: in vivo, Arabidopsis
[1] = test system: SA-dependent defense signaling; experiment: Priming of SA accumulation after Pseudomonas syringae infection
Experimental: (§1) Five mM MES or 1 mM azelaic acid in 5 mM MES were applied to leaves of wild-type Col Arabidopsis 2 days prior to inoculation of 10 mM MgSO4 (M), virulent PmaDG3 (V) and avirulent PmaDG6 expressing AvrRpt2 (Av). Leaves were collected at different times after inoculation and endogenous free and total SA level was measured. (B) Relative PR1 expression in leaves of mock-treated plants and azelaic acid-treated plants after virulent PmaDG3 infection. The expression of PR1 is plotted on a log scale. The number of asterisks indicates samples that were different from one another at given levels of statistical significance (*p<0.075, **p<0.05, ***p<0.01).
(§2) Since SA signaling mutants were compromised in responding to azelaic acid, it was investigated whether azelaic acid might prime SA synthesis or SA-dependent defense responses in plants. To test this, plants were sprayed with 1 mM azelaic acid (or 5 mM MES) and after two days infected with virulent PmaDG3 and avirulent PmaDG6 (carrying avrRpt2) (OD600=0.01). […] The priming effect by azelaic acid was also investigated by analyzing PR1 expression, a molecular marker for SA signaling (FIG. 6B). Mock- and azelaic acid-treated plants were infected with virulent PmaDG3 (OD600=0.01) 2 days after spray treatments. PR1 expression was increased in both azelaic acid treated and untreated plants after infection with the virulent strain. However, the expression was higher in leaves pretreated with azelaic acid after pathogen infection, compared with expression in mock-treated plants following pathogen infection (note the log scale in FIG. 6B).

[2] = test system: plant cell; experiment: Toxicity of azelaic acid to plant cell; conditions: 1 mM in 5 mM MES (pH 5.6)
Experimental: (§3) Biological activity of azelaic acid in inducing disease resistance. 1 mM azelaic acid was infiltrated into leaves 3 and 4 of 3-week old plants. Two days later, plants were inoculated with virulent PmaDG3 onto leaves 3 and 4 or in the upper leaves, which were not pre-treated with azelaic acid (systemic leaves). Azelaic acid (1 mM) dissolved in 5 mM MES (pH 5.6) was not toxic to plant cell. […] Mock-treated and azelaic acid-treated plants were also infiltrated with avirulent derivatives of P. syringae pv. maculicola carrying avrRpt2 (PmaDG6) or avrRpm1 (PmaDG34).

[3] = test system: defense-related genes; experiment: Defense-related gene expression after azelaic acid treatment (mini array, RT-PCR)
Experimental: (§4) (A) Time course of free and total salicylic acid levels in leaves of Col after spray treatments with 5 mM MES (black bars) and 1 mM azelaic acid in 5 mM MES (white bars). (B) Camalexin levels in leaves of Col after azelaic acid treatment by spraying. Each experiment in (A) and (B) was performed with three different samples and the experiments were repeated three times. (C) Expression of an LTP gene (At2g38530) was elevated after azelaic acid treatment performed as in (A), however expression of PR1 and many other defense-related genes was unaffected. RT-PCR (23 cycles) was used to assess gene expression, with EF1a serving as a loading control.
(§5) Since resistance to P. syringae requires activation of SA-dependent defenses accompanied by elevated endogenous SA levels, it was investigated whether azelaic acid directly induces SA accumulation. […] Additionally, the levels of the phytoalexin Camalexin, a defense metabolite, were similar in azelaic acid-treated and mock-treated plants (FIG. 5B). […] To investigate whether azelaic acid might affect additional defense markers, expression of defense-related genes was monitored using a mini array. […] RT-PCR confirmed that At2g38530 was induced by azelaic acid. However, PR1, a SA signaling marker, was not induced by azelaic acid. Thus, azelaic acid appears not to induce large changes in known signaling pathways activated by P. syrinagae, but does induce at least one defense-related gene.

[4] = test system: PmaDG6 (PmaDG3 carrying avrRpt2); experiment: Growth of avirulent PmaDG6 in azelaic acid-pretreated leaves; conditions: 1 mM pretreatment
Experimental: (§6) (A) Local and systemic resistance response by azelaic acid treatment against virulent PmaDG3 infections. Local or systemic leaves of 21˜23-day-old plants were treated with 5 mM MES (pH 5.6) (black bars) or 1 mM azelaic acid in 5 mM MES (pH 5.6, white bars) 2 days prior to challenge with the virulent PmaDG3 strain (OD600=0.0001). MES and azelaic acid were introduced into leaves by syringe-infiltration. […] (B) Growth of avirulent strains PmaDG6 (PmaDG3 carrying avrRpt2) and PmaDG34 (PmaDG3 carrying avrRpm1) in leaves of Col pretreated with 5 mM MES (black bars) or 1 mM azelaic acid in 5 mM MES (pH 5.6, white bars). (C) Twenty three-day-old plants were pretreated with 1, 10, 100, and 1000 μM azelaic acid in 5 mM MES or 5 mM MES for 2 days and then subjected to infection with virulent PmaDG3 at OD600=0.0001. […] (D) Plants were treated with 5 mM MES or 1 mM azelaic acid for the indicated times prior to inoculation with virulent PmaDG3. Inoculations with PmaDG3 were performed between noon and 1 pm. Azelaic acid (Aza) in 5 mM MES was applied to plants using a hand-sprayer. The growth of bacteria was measured on day 3 after inoculation. […] (E) Plants were treated and infected as in (D), except that infections were performed between […]. (*p<0.04). These experiments were repeated two to four times to confirm reproducibility.
Biological activity of azelaic acid in inducing disease resistance. […]

[5] = test system: salicylic acid and camalexin levels; experiment: Endogenous salicylic acid and camalexin levels after azelaic acid spray; conditions: 1 mM spray, no infection, vs mock
Experimental: as §4
as §5, with “Thus, azelaic acid appears not to induce large changes in known signaling pathways activated by P. syrinagae, but does induce at least one defense-related gene.” left out

[6] = test system: PR1 expression; experiment: Priming of PR1 expression after virulent PmaDG3 infection; conditions: 1 mM spray 2 days before PmaDG3 (OD600=0.01); vs mock
Experimental: as §1
as §2, with “However, the expression was higher in leaves pretreated with azelaic acid after pathogen infection, compared with expression in mock-treated plants following pathogen infection (note the log scale in FIG. 6B).” left out

[7] = test system: virulent PmaDG3; experiment: Azelaic acid-induced resistance against virulent PmaDG3 infection
Experimental: as §6
1 mM azelaic acid in 5 mM MES was applied to wild-type Col, SAR-defective, and SA-deficient mutants (A) and jasmonic acid/ethylene-insensitive mutants (B) 2 days prior to challenge-inoculation of virulent PmaDG3 (OD600=0.0001). […] The experiments were repeated a minimum of three times. The number of asterisks indicates samples that were different from one another at given levels of statistical significance (*p<0.05, **p<0.01).
as §3
PmaDG3 growth was measured after spray treatment of plants with various concentrations of azelaic acid. […] It was also tested whether azelaic acid required a certain induction period for the induced resistance response. […] However, when plants were grown in the dark for 12 hours after treatment, azelaic acid was ineffective at conferring disease resistance (FIG. 3E). […] Thus, azelaic acid induces a light-dependent disease resistance response against infection with P. syringae that is also concentration- and time-dependent.
To further characterize how plants regulate azelaic acid-induced resistance, 1 mM azelaic acid was sprayed onto wild type and several mutant plants 2 days before infection with virulent PmaDG3 and bacterial growth was measured. Unlike wild-type plants, the SA pathway mutants tested were susceptible to virulent PmaDG3 infection regardless of treatment with azelaic acid (FIG. 4A). […] Pathogen resistance was also dependent on […], which is important for SA-induced disease resistance and SAR maintenance in Arabidopsis. The growth of bacteria was also monitored in leaves of JA- and ethylene-insensitive mutants, jar1 and etr1, following treatment with 1 mM azelaic acid.

`O=C(O)CCCCCCCC(=O)O` [azelaic acid] was tested, and the “levels of free SA” value ([1]; 1 mM spray 2 days before, 6 and 18 hrs after virulent PmaDG3 infection, vs mock, p<0.05) was “significantly higher”, the “total SA accumulation” value ([1]; 18 hrs after inoculation with both PmaDG3 and PmaDG6, vs mock, p<0.01) was “higher level” and the “levels of free SA” value ([1]; after infection with PmaDG6 (carrying avrRpt2)) was “not statistically significant”. For the same molecule, the “Endogenous free and total SA levels during Pseudomonas syringae infections” value ([1]; vs mock-treated plants) was “significantly higher”, the “toxicity to plant cell” value [2] was “not toxic” and the “At2g38530 expression by RT-PCR” value ([3]; RT-PCR) was “elevated; also recorded: induced”. The PR1 expression ([3]; azelaic acid alone, no infection) was “unaffected; also recorded: not induced”, the “induction of LTP gene At2g38530” value ([3]; mini array) was 3 fold and the “expression of most defense-related genes” value ([3]; mini array, vs mock) was “unaffected; also recorded: no difference in expression”. For the same molecule, the “growth of PmaDG6” value [4] was “reduction in the growth”, the Camalexin levels [5] was “does not affect; also recorded: similar” and the “free and total SA level” value [5] was “does not affect; also recorded: no significant difference”. The “PR1 expression after pathogen infection” value [6] was “higher”, the “resistance, pretreatment 12 hours prior to pathogen challenge” value ([7]; 1 mM hand sprayer, light) was “low level of resistance” and the “resistance, pretreatment 6 hours prior to infection” value ([7]; 1 mM hand sprayer, plants grown in the light) was “still susceptible”. For the same molecule, the disease symptoms ([7]; 1 mM infiltrated 2 days before PmaDG3 challenge) was “significant reduction in the disease symptoms; also recorded: very little disease symptom development”, the “growth of PmaDG3” value ([7]; 1 mM infiltrated 2 days before challenge, local and systemic leaves) was “reduction in pathogen growth; also recorded: significantly reduced” and the “protection, inoculation 48 h after spraying” value ([7]; 1 mM spray) was “Significant protection”. For the same molecule, the “disease resistance, plants in the dark for 12 hours after treatment” value ([7]; 1 mM spray, dark) was “ineffective”, the “resistance to PmaDG3 in SAR-defective / SA pathway mutants” value ([7]; 1 mM sprayed 2 days before infection) was “did not induce plant resistance; also recorded: susceptible” and the “resistance in jar1 and etr1 mutants” value ([7]; 1 mM, JA- and ethylene-insensitive mutants) was “did not affect; also recorded: effective in restricting bacterial growth”. The bacterial growth ([7]; 1 or 10 μM vs 5 mM MES) was “no difference in bacterial growth”, the “suppression of bacteria growth” value ([7]; 100 and 1000 μM pretreatment) was 10 fold and the “resistance to PmaDG3 / growth of bacteria” value ([7]; 100 and 1000 μM pretreatment for 2 days) was “significant reduction of the growth of bacteria; also recorded: resistant to PmaDG3”.
